Experimental data taken from PMC7859723 (International Journal of Biological Macromolecules, 2021).

Legend:
[1] = tested on: 3CLpro; conditions: cited from earlier work
[2] = tested on: 3CLpro; conditions: read-out: IC50, inhibition of 3CLpro activity; cited from earlier work
[3] = molecular target: T1, SARS-CoV-2 3CLpro (Severe acute respiratory syndrome coronavirus 2, UniProt P0DTD1); test: Thermal shift assay; assay type: binding; conditions: compared with DMSO control
[4] = retrieved from database; ref TCMSP database; cited from earlier work
[5] = Water solubility; assay type: physicochemical
[6] = molecular target: T1, SARS-CoV-2 3CLpro; test: SPR binding assay on immobilized 3CLpro
[7] = molecular target: T1, SARS-CoV-2 3CLpro; test: FRET protease assay, 3CLpro enzyme activity inhibition; assay type: biochemical

| SMILES | Kd [6] [nM] | IC50 [7] [nM] | other results |
| --- | --- | --- | --- |
| O=c1c2ccccc2[se]n1-c1ccccc1 [Ebselen] | – | – | EC50 [1]: 4670 ± 800 nM; IC50 [2]: 670 ± 90 nM |
| O=C(O[C@@H]1Cc2c(O)cc(O)cc2O[C@@H]1c1cc(O)c(O)c(O)c1)c1cc(O)c(O)c(O)c1 [Epigallocatechin-3-gallate, epigallocatechin-3-gallate] | – | – | effect on thermal stability of 3CLpro [3]: altered the thermal stability of SARS-CoV-2 3CLpro in a dose-dependent manner; OB (oral bioavailability) [4]: 55.09% |
| COc1cc(-c2oc3cc(O)cc(O)c3c(=O)c2O)ccc1O [Isorhamnetin, isorhamnetin] | – | – | water solubility [5]: low water solubility |
| O=c1c(O)c(-c2ccc(O)cc2)oc2cc(O)cc(O)c12 [Kaempferol, kaempferol] | 1700 | > 100000 | – |
| O=c1cc(-c2ccc(O)c(O)c2)oc2cc(O)cc(O)c12 [Luteolin, luteolin] | 1630 | 89700 | – |
| O=C1C[C@@H](c2ccc(O)cc2)Oc2cc(O)cc(O)c21 [Naringenin, naringenin] | 2870 | > 100000 | – |
